Patent US20180044316A1, “POTENTIATORS OF BETA-LACTAM ANTIBIOTICS” (UNIVERSITY OF NOTRE DAME DU LAC, priority 2015, published 2018)
Where “and” joins values, the source holds several entries; their conditions need not be identical. Equal values may be shown once. Read-outs that look alike come from different tables or passages of the source.

What was measured:
Stk1 protein kinase [1] = target: T1, Stk1 protein kinase (Staphylococcus aureus, UniProt A0ABF7PGK0); assay: In vitro phosphorylation assay: Stk1 autophosphorylation; assay type: biochemical, S. aureus strain NRS70; conditions: IC50, inhibition of Stk1 autophosphorylation, [γ-32P]-ATP 20 μM
Excerpt: (§1) Cloning, expression, and purification of S. aureus Stk1 protein kinase. The stk1 gene for Stk1 protein kinase (SA1063 in S. aureus NRS70) is conserved in all known genomic sequences for S. aureus (Beltramini et al., Infect. Immun. 77, 1406-1416 (2009); Débarbouillé et al., J. Bacteriol. 191, 4070-4081 (2009); Didier et al., FEMS Microbiol. Lett. 306, 30-36 (2010)). We PCR-amplified the DNA fragment corresponding to the entire coding sequences of stk1 from S. aureus strain NRS70 chromosomal DNA with primers STK1fw (5′-[…] […]-3′) and STK1rev (5′-[…] […]-3′). The amplified DNA fragments were then digested with NdeI and XhoI restriction enzymes and cloned into pET28a. After verification of the inserts by DNA sequencing on both strands, the resulting plasmid (termed pETstk1) was introduced into E. coli strain BL21(DE3) for protein expression.
(§2) For purification of Stk1, 5 mL of an overnight culture of BL21(DE3) harboring pETstk1 was inoculated into 500 mL fresh LB medium and grown at 37° C. until the OD600 reached 0.8. Isopropyl β-D-1-thiogalactopyranoside (IPTG) was then added to the culture to a final concentration of 0.5 mM and the culture was shaken at 15° C. overnight. The culture was then centrifuged at 5000 rpm at 4° C. for 15 min. The pellet was resuspended in 20 mL of lysis buffer (25 mM HEPES, 500 mM NaCl, 10 mM imidazole, pH 7.4). After sonication, the lysate was centrifuged at 18,000 g at 4° C. for 45 min. The resulting supernatant containing the His-tagged Stk1 was loaded onto a 5-mL Hitrap Chelating column (GE Healthcare), followed by elution with a linear gradient of imidazole (0-500 mM) in lysis buffer. The fractions containing Stk1 were pooled, concentrated and the buffer was exchanged to 25 mM HEPES, pH 7.4. The resulting sample was then subjected to Q anion-exchange chromatography and eluted with a linear gradient of NaCl (0-1 M). Protein purity was ascertained by sodium dodecyl sulfate polyacrylamide gel electrophoresis (SDS-PAGE) (FIG. 7).
(§3) In vitro phosphorylation assay. […] Band intensities were quantified using GelQuant software. […]

Stk1 protein kinase [2] = target: T1, Stk1 protein kinase; assay: In vitro phosphorylation assay: phosphorylation of myelin basic protein (MBP) by Stk1; assay type: biochemical, S. aureus strain NRS70; conditions: IC50, inhibition of MBP phosphorylation by Stk1, [γ-32P]-ATP 20 μM
Excerpt: as §1, §2, §3

MRSA strain NRS123 = assay: MIC determination (broth microdilution), oxacillin with or without kinase inhibitor; assay type: cell-based, Staphylococcus aureus; conditions: for MIC of oxacillin in the presence of compound: compound at 7 μg/mL
Excerpt: (§4) We evaluated the new imidazole analogues for their ability to lower the MIC of oxacillin against MRSA in the same manner as for the kinase inhibitor library. In addition to MRSA252, we expanded our investigation to include strains NRS123 and NRS70, both of which have 95% sequence identities between their BlaR1 proteins and that of NRS128, with the bla operon encoded on plasmids (pMW2 and pN315, respectively).
(§5) Minimal-inhibitory concentration (MIC) determination. Determination of MICs was done by the microdilution method cation-adjusted in Mueller-Hinton II Broth (CAMHB II, BBL) in accordance with the protocols of CLSI (Performance Standards for Antimicrobial Susceptibility Testing; Twenty-Second Informational Supplement. CLSI document M100-S22. Clinical and Laboratory Standards Institute Wayne, Pa.). A final bacterial inoculum of 5×10^5 CFU/mL was used, and the results were recorded after incubation for 16-20 h at 37° C.

MRSA strain NRS70 = assay: as above; assay type: cell-based, Staphylococcus aureus; conditions: for MIC of oxacillin in the presence of compound: compound at 7 μg/mL
Excerpt: as §4, §5

S. aureus MRSA252 = assay: as above; assay type: cell-based, Staphylococcus aureus; conditions: for MIC of oxacillin in the presence of compound: compound at 7 μg/mL; for MIC: Staphylococcus aureus
Experimental: A protein-kinase inhibitor library of 80 known compounds was tested in a 96-well format against strain MRSA252 for the screening. We first determined MICs (broth microdilution method) (CLSI, Performance Standards for Antimicrobial Susceptibility Testing; Twenty-Second Informational Supplement. CLSI document M100-S22. Clinical and Laboratory Standards Institute; Wayne, Pa.) for all the inhibitors in the library, in case some of them might have antibacterial properties of their own, which could complicate the analysis.
This rapid initial screening identified compound 1 as meeting the selection criteria of lowering the MIC for oxacillin, which was followed up by the actual evaluation of the MIC of oxacillin against S. aureus MRSA252 in the presence of the inhibitor.
as §5

BlaR1 phosphorylation [3] = assay: BlaR1 phosphorylation by western blot in CBAP-induced NRS70 whole-cell extracts; assay type: cell-based, Staphylococcus aureus NRS70; conditions: for tyrosine phosphorylation of the BlaR1 fragment: NRS70, CBAP-induced, 7 μg/mL inhibitor; for serine phosphorylation of BlaR1 fragment: NRS70, even at 17 μg/mL
Experimental: We then evaluated the ability of compounds 10, 11 or 12 to inhibit tyrosine phosphorylation of BlaR1 in NRS70 extracts. The bacteria were grown under the conditions described earlier for NRS128, induced by CBAP in the absence and presence of 0.7 μg/mL or 7 μg/mL compounds 10, 11 or 12, and analyzed by western blot using antibody against phosphotyrosine (FIG. 5a). […] However, serine phosphorylation was not inhibited by any of these compounds, even at 17 μg/mL (FIG. 6), in contrast to the case of 1, which had inhibited both. This provides evidence for the critical nature of tyrosine phosphorylation for regulation of BlaR1.
To overcome this, we subsequently cleared all S. aureus extracts of Protein A and other immunoglobulin-binding proteins by incubation with IgG Sepharose (GE Healthcare, Little Chalfont, UK) for 1-2 h at room temperature with gentle agitation. After a brief centrifugation, the total protein in the supernatant was quantified by a BCA assay and 20 μg was loaded onto an 11% SDS-PAGE gel. Following electrophoresis, samples were transferred to a nitrocellulose membrane in a 10 mM CAPS (pH 11) buffer containing 10% methanol. Membranes were blocked in 3% BSA for phosphoserine blots or Blotto (3% BSA, 3% milk in TBS) for phosphotyrosine blots. HRP-conjugated primary antibody was applied in either 1% BSA/TBST (phosphoserine, Abcam, Cambridge, UK) or 1.1% milk/TBST (phosphotyrosine, 4G10 Platinum, EMD Millipore, Billerica, Mass., U.S.A.). Phosphoserine blots were developed with Pierce ECL Substrate (Thermo Scientific) and phosphotyrosine blots were developed with SuperSignal West Dura Extended Duration Substrate (Thermo Scientific), then exposed to X-ray film for an appropriate amount of time (30-600 s).

BlaR1 phosphorylation [4] = assay: BlaR1 phosphorylation by western blot in CBAP-induced NRS128 whole-cell extracts; assay type: cell-based, Staphylococcus aureus NRS128; conditions: NRS128 induced with 10 μg/mL CBAP, compound at 7 or 17 μg/mL
Experimental: Next, we tested the effect of exposure of CBAP-induced NRS128 to this kinase inhibitor. Cultures were induced with 10 μg/mL CBAP in the presence of 0, 7, or 17 μg/mL of compound 1. Whole-cell extracts of these bacteria were analyzed for BlaR1 phosphorylation by western blot using anti-Phos-Ser and anti-Phos-Tyr antibodies. Compound 1 inhibited both the phosphotyrosine and phosphoserine kinase activities by as much as 70-90% (FIG. 4).
Detection of BlaR1 phosphorylation in presence of antibiotic. As we had disclosed in a recent publication on fragmentation of BlaR1 during the course of induction, we detect a cleavage at position S283-F284 of BlaR1 (Llarrull et al., J. Biol. Chem. 2011, 286, 38148-38158). This proteolytic cleavage cuts the BlaR1 protein into two fragments of roughly equal sizes (approx. 30-31 kDa). […]
Extracts were prepared as previously described in buffer containing 50 mM Tris pH 7.5, 150 mM NaCl, 2 mM EDTA, 0.55% SDS, 2.5% Triton X-100, and Halt Protease and Phosphatase Inhibitor Cocktail (Thermo Scientific, Waltham, Mass., U.S.A.) and analyzed by Western blot using antibodies against phosphothreonine, phosphotyrosine, and phosphoserine. A ˜30 kDa protein band was detected by the phosphotyrosine and phosphoserine specific antibodies only in cell extracts of S. aureus cells grown with CBAP (FIG. 2). This band was not detected by the phosphothreonine antibody. […]

[5] = Staphylococcus aureus, no inhibitor

MIC (S. aureus MRSA252; without oxacillin, read-out: MIC of the kinase inhibitor alone) | decrease in the MIC of oxacillin (S. aureus MRSA252; inhibitor at 7 μg/mL) | Compound | IC50 (Stk1 protein kinase [1]) | IC50 (Stk1 protein kinase [2]) | MIC of oxacillin in the presence of compound (MRSA strain NRS123) | MIC of oxacillin in the presence of compound (MRSA strain NRS70) | MIC of oxacillin in the presence of compound (S. aureus MRSA252) | tyrosine phosphorylation of the BlaR1 fragment (BlaR1 phosphorylation [3]) | serine phosphorylation of BlaR1 fragment (BlaR1 phosphorylation [3]) | inhibition of phosphoserine kinase activity (BlaR1 phosphorylation) (BlaR1 phosphorylation [4]; anti-Phos-Ser western blot) | inhibition of phosphotyrosine kinase activity (BlaR1 phosphorylation) (BlaR1 phosphorylation [4]; anti-Phos-Tyr western blot) | MIC (MRSA strain NRS123; [5]) | MIC (MRSA strain NRS70; [5]) | MIC (S. aureus MRSA252; no inhibitor, read-out: MIC of oxacillin)
– | – | CC(C)Cc1ccc(-c2nc(-c3ccc(F)cc3)c(-c3ccncc3)[nH]2)cc1 [Compound 12, 2-(4-iso-Butylphenyl)-4-(4-fluorophenyl)-5-(4-pyridyl)imidazole] | 16.2 µM and 17 µM and 18 µM | 16.2 µM and 15.3 µM | 4 µg/mL | 0.5 µg/mL | 4 µg/mL | almost completely abolished | not inhibited | – | – | – | – | –
≥ 64 µg/mL | four-fold decrease | Oc1ccc(-c2nc(-c3ccc(F)cc3)c(-c3ccncc3)[nH]2)cc1 [Compound 1, reference compound] | – | – | – | – | – | – | – | 70-90% | 70-90% | – | – | –
– | – | Cc1onc(-c2ccccc2)c1C(=O)N[C@@H]1C(=O)N2[C@@H]1SC(C)(C)[C@@H]2C(=O)O [oxacillin, reference compound] | – | – | – | – | – | – | – | – | – | 16 µg/mL | 32 µg/mL | 256 µg/mL
– | – | CC(C)(C)c1ccc(-c2nc(-c3ccc(F)cc3)c(-c3ccncc3)[nH]2)cc1 [Compound 10, 2-(4-tert-Butylphenyl)-4-(4-fluorophenyl)-5-(4-pyridyl)imidazole] | 8.35 µM and 8.8 µM | 5.65 µM and 6.1 µM | 8 µg/mL | 4 µg/mL | 2 µg/mL | almost completely abolished | not inhibited | – | – | – | – | –
– | – | CCc1ccc(-c2nc(-c3ccc(F)cc3)c(-c3ccncc3)[nH]2)cc1 [Compound 11, 2-(4-Ethylphenyl)-4-(4-fluorophenyl)-5-(4-pyridyl)imidazole] | 14.6 µM and 14.9 µM and 14.7 µM | 11.6 µM and 12.2 µM and 12 µM | 4 µg/mL | 0.5 µg/mL | 16 µg/mL | almost completely abolished | not inhibited | – | – | – | – | –
